ChEMBL document CHEMBL1201862, “PubChem BioAssay data set” (2004)
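Growth conditions: 96-well plates. Treatment: test compound, 48 hours, 5 concentrations. Analysis: linear interpolation between bracketing concentrations; unreached endpoints set to highest concentration. GI50: concentration for 50% inhibition of growth.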 Calls of active or inactive are those of the source. Rule as the data show it: active = GI50 up to about 1.1 µM and inactive = higher.

Tests used:
Assay in all cases: NCI-60 cell line screen, 48 h
SNB-75 = system: SNB-75
SK-MEL-5 = system: SK-MEL-5
NCI-H23 = system: NCI-H23
MOLT-4 = system: MOLT-4
NCI-H460 = system: NCI-H460
ACHN = system: ACHN
OVCAR-5 = system: OVCAR-5
DLD-1 = system: DLD-1
UO-31 = system: UO-31
SW-620 = system: SW-620
HCT-15 = system: HCT-15
COLO 205 = system: COLO 205
OVCAR-4 = system: OVCAR-4
OVCAR-8 = system: OVCAR-8
HOP-62 = system: HOP-62
NCI-H226 = system: NCI-H226
K562 = system: K562
MCF7 = system: MCF7
MDA-N = system: MDA-N
DU-145 = system: DU-145

Q: [N-]=[N+]=Nc1ccc(S(=O)(=O)Oc2cc(OS(=O)(=O)c3ccc(N=[N+]=[N-])cc3)cc(OS(=O)(=O)c3ccc(N=[N+]=[N-])cc3)c2)cc1 was tested. Which GI50 (SNB-75) did it give?
A: > 10 µM (inactive)

Q: What about the GI50 (SK-MEL-5) of the same molecule?
A: > 100 µM (inactive)

Q: What about the GI50 (NCI-H23) of the same molecule?
A: > 100 µM (inactive)

Q: What about the GI50 (MOLT-4) of the same molecule?
A: > 100 µM (inactive)

Q: What about the GI50 (NCI-H460) of the same molecule?
A: > 100 µM (inactive)

Q: What about the GI50 (ACHN) of the same molecule?
A: > 10 µM (inactive)

Q: And the GI50 (OVCAR-5)?
A: > 100 µM (inactive)

Q: And the GI50 (DLD-1)?
A: > 100 µM (inactive)

Q: And the GI50 (UO-31)?
A: > 100 µM (inactive)

Q: What about the GI50 (SW-620) of the same molecule?
A: > 10 µM (inactive)

Q: What about the GI50 (HCT-15) of the same molecule?
A: > 100 µM

Q: And the GI50 (COLO 205)?
A: > 10 µM (inactive)

Q: And the GI50 (OVCAR-4)?
A: > 10 µM (inactive)

Q: What about the GI50 (OVCAR-8) of the same molecule?
A: > 10 µM (inactive)

Q: What about the GI50 (HOP-62) of the same molecule?
A: > 100 µM (inactive)

Q: And the GI50 (NCI-H226)?
A: > 10 µM (inactive)

Q: What about the GI50 (K562) of the same molecule?
A: > 100 µM (inactive)

Q: For CCN(CC)CCCN(c1cc(OC)cc2nccnc12)S(=O)(=O)c1ccc(C)cc1, which GI50 (SNB-75) is on record?
A: 37.2 µM (inactive)

Q: And the GI50 (SK-MEL-5)?
A: > 100 µM (inactive)

Q: And the GI50 (NCI-H23)?
A: > 100 µM (inactive)

Q: What about the GI50 (MOLT-4) of the same molecule?
A: 74.6 µM (inactive)

Q: What about the GI50 (NCI-H460) of the same molecule?
A: > 100 µM (inactive)

Q: What about the GI50 (ACHN) of the same molecule?
A: > 100 µM (inactive)

Q: And the GI50 (OVCAR-5)?
A: > 100 µM (inactive)

Q: And the GI50 (DLD-1)?
A: > 100 µM (inactive)

Q: And the GI50 (UO-31)?
A: > 100 µM (inactive)

Q: What about the GI50 (SW-620) of the same molecule?
A: > 100 µM (inactive)

Q: And the GI50 (HCT-15)?
A: > 100 µM

Q: What about the GI50 (COLO 205) of the same molecule?
A: > 100 µM (inactive)

Q: What about the GI50 (OVCAR-4) of the same molecule?
A: > 100 µM (inactive)

Q: And the GI50 (OVCAR-8)?
A: > 100 µM (inactive)

Q: What about the GI50 (HOP-62) of the same molecule?
A: > 100 µM (inactive)

Q: What about the GI50 (NCI-H226) of the same molecule?
A: > 100 µM (inactive)

Q: What about the GI50 (K562) of the same molecule?
A: > 100 µM (inactive)

Q: What does the source list for CC(C)(Br)C(Br)CC/C(=C/CBr)CBr.CC(C)(Br)C(Br)CC/C(=C\CBr)CBr (stereo unspecified)?
A: GI50 (SNB-75): 3.98 µM (inactive); GI50 (SK-MEL-5): 4.5 µM (inactive); GI50 (NCI-H23): 3.41 µM (inactive); GI50 (MOLT-4): 2.1 µM (inactive); GI50 (NCI-H460): 3.21 µM (inactive); GI50 (MCF7): 3.29 µM (inactive); GI50 (MDA-N): 2.16 µM (inactive); GI50 (ACHN): 5.83 µM (inactive); GI50 (OVCAR-5): 18.6 µM (inactive); GI50 (DLD-1): 3.39 µM (inactive); GI50 (UO-31): 14.3 µM (inactive); GI50 (SW-620): 2.71 µM (inactive); GI50 (HCT-15): 2.51 µM; GI50 (COLO 205): 3.27 µM (inactive); GI50 (OVCAR-4): 5.2 µM (inactive); GI50 (DU-145): 10.5 µM (inactive); GI50 (OVCAR-8): 2.54 µM (inactive); GI50 (HOP-62): 2.89 µM (inactive); GI50 (NCI-H226): 14.2 µM (inactive); GI50 (K562): 2.24 µM (inactive)

Q: Which results are given for Cc1nsc2cc(Cl)n(C)c(=O)c12?
A: GI50 (SNB-75): 66.4 µM (inactive); GI50 (SK-MEL-5): > 100 µM (inactive); GI50 (NCI-H23): > 100 µM (inactive); GI50 (MOLT-4): > 100 µM (inactive); GI50 (NCI-H460): > 100 µM (inactive); GI50 (ACHN): > 100 µM (inactive); GI50 (OVCAR-5): > 100 µM (inactive); GI50 (DLD-1): > 100 µM (inactive); GI50 (UO-31): > 100 µM (inactive); GI50 (SW-620): > 100 µM (inactive); GI50 (HCT-15): > 100 µM; GI50 (COLO 205): > 100 µM (inactive); GI50 (OVCAR-4): > 100 µM (inactive); GI50 (OVCAR-8): > 100 µM (inactive); GI50 (HOP-62): > 100 µM (inactive); GI50 (NCI-H226): > 100 µM (inactive); GI50 (K562): > 100 µM (inactive)

Q: Which results are given for O=C1c2cccc3cccc(c23)C(=O)N1CCCN1CCN(CCCN2C(=O)c3cccc4cccc(c34)C2=O)CC1?
A: GI50 (SNB-75): > 100 µM (inactive); GI50 (SK-MEL-5): > 100 µM (inactive); GI50 (NCI-H23): > 100 µM (inactive); GI50 (MOLT-4): > 100 µM (inactive); GI50 (NCI-H460): > 100 µM (inactive); GI50 (ACHN): > 100 µM (inactive); GI50 (OVCAR-5): > 100 µM (inactive); GI50 (DLD-1): > 100 µM (inactive); GI50 (UO-31): > 100 µM (inactive); GI50 (SW-620): > 100 µM (inactive); GI50 (HCT-15): > 100 µM; GI50 (COLO 205): > 100 µM (inactive); GI50 (OVCAR-4): > 100 µM (inactive); GI50 (OVCAR-8): > 100 µM (inactive); GI50 (HOP-62): > 100 µM (inactive); GI50 (NCI-H226): > 100 µM (inactive); GI50 (K562): > 100 µM (inactive)

Q: NNC(=O)C(=O)NN=C(C(Cl)(Cl)CO)C(Cl)(Cl)CO was tested. Which GI50 (SNB-75) did it give?
A: 32.5 µM (inactive)

Q: What about the GI50 (SK-MEL-5) of the same molecule?
A: 40.4 µM (inactive)

Q: And the GI50 (NCI-H23)?
A: 30.5 µM (inactive)

Q: And the GI50 (MOLT-4)?
A: 21.2 µM (inactive)

Q: And the GI50 (NCI-H460)?
A: 44.9 µM (inactive)

Q: And the GI50 (ACHN)?
A: 31.3 µM (inactive)

Q: And the GI50 (OVCAR-5)?
A: 31.3 µM (inactive)

Q: What about the GI50 (DLD-1) of the same molecule?
A: 22.6 µM (inactive)

Q: And the GI50 (UO-31)?
A: 45.7 µM (inactive)

Q: What about the GI50 (SW-620) of the same molecule?
A: 18.4 µM (inactive)

Q: What about the GI50 (HCT-15) of the same molecule?
A: 25.7 µM

Q: And the GI50 (COLO 205)?
A: > 100 µM (inactive)

Q: And the GI50 (OVCAR-4)?
A: > 100 µM (inactive)

Q: And the GI50 (OVCAR-8)?
A: 21.3 µM (inactive)

Q: What about the GI50 (HOP-62) of the same molecule?
A: 70.8 µM (inactive)

Q: And the GI50 (NCI-H226)?
A: > 100 µM (inactive)

Q: And the GI50 (K562)?
A: 36.7 µM (inactive)

Q: How did the GI50 (SNB-75) turn out when CC1SC2=NC3=C(c4ccccc4C3=O)C(c3ccc(Cl)cc3)N2C1=O (stereo unspecified) was run?
A: 45.8 µM (inactive)

Q: And the GI50 (SK-MEL-5)?
A: > 100 µM (inactive)

Q: What about the GI50 (NCI-H23) of the same molecule?
A: 97.7 µM (inactive)

Q: And the GI50 (MOLT-4)?
A: > 100 µM (inactive)

Q: And the GI50 (NCI-H460)?
A: > 100 µM (inactive)

Q: And the GI50 (ACHN)?
A: > 100 µM (inactive)

Q: What about the GI50 (OVCAR-5) of the same molecule?
A: > 100 µM (inactive)

Q: And the GI50 (DLD-1)?
A: > 100 µM (inactive)

Q: And the GI50 (UO-31)?
A: 32.8 µM (inactive)

Q: And the GI50 (SW-620)?
A: > 100 µM (inactive)

Q: And the GI50 (HCT-15)?
A: > 100 µM

Q: And the GI50 (COLO 205)?
A: > 100 µM (inactive)

Q: And the GI50 (OVCAR-4)?
A: 61.1 µM (inactive)

Q: And the GI50 (OVCAR-8)?
A: > 100 µM (inactive)

Q: What about the GI50 (HOP-62) of the same molecule?
A: > 100 µM (inactive)

Q: What about the GI50 (NCI-H226) of the same molecule?
A: > 100 µM (inactive)

Q: And the GI50 (K562)?
A: > 100 µM (inactive)

Q: With CC(=O)OCC1OC(n2ccc(=O)[nH]c2=O)C(OC(C)=O)C(OC(C)=O)C1OC(C)=O (stereo unspecified) as the molecule, how does the GI50 (SNB-75) read?
A: 50.6 µM (inactive)

Q: What about the GI50 (SK-MEL-5) of the same molecule?
A: > 100 µM (inactive)

Q: And the GI50 (NCI-H23)?
A: > 100 µM (inactive)

Q: What about the GI50 (MOLT-4) of the same molecule?
A: > 10 µM (inactive)

Q: What about the GI50 (NCI-H460) of the same molecule?
A: > 100 µM (inactive)

Q: And the GI50 (ACHN)?
A: > 100 µM (inactive)

Q: What about the GI50 (OVCAR-5) of the same molecule?
A: > 100 µM (inactive)

Q: What about the GI50 (DLD-1) of the same molecule?
A: > 100 µM (inactive)

Q: And the GI50 (UO-31)?
A: > 100 µM (inactive)

Q: What about the GI50 (SW-620) of the same molecule?
A: > 100 µM (inactive)

Q: What about the GI50 (HCT-15) of the same molecule?
A: > 100 µM

Q: And the GI50 (COLO 205)?
A: > 100 µM (inactive)

Q: And the GI50 (OVCAR-4)?
A: > 100 µM (inactive)

Q: And the GI50 (OVCAR-8)?
A: > 100 µM (inactive)

Q: And the GI50 (HOP-62)?
A: > 100 µM (inactive)

Q: What about the GI50 (NCI-H226) of the same molecule?
A: 9.16 µM (inactive)

Q: What about the GI50 (K562) of the same molecule?
A: > 100 µM (inactive)

Q: Which GI50 (SNB-75) does the source give for COC(=O)[C@@]12C3=NO[C@]1(C(=O)OC)C(O[Si](C)(C)C(C)(C)C)[C@@H](OC(C)=O)[C@@H](OC(C)=O)[C@@H]2[C@@H](OCc1ccccc1)CC3 (stereo partly specified) here?
A: 8.63 µM (inactive)

Q: And the GI50 (SK-MEL-5)?
A: 4.16 µM (inactive)

Q: And the GI50 (NCI-H23)?
A: 4.9 µM (inactive)

Q: What about the GI50 (MOLT-4) of the same molecule?
A: 5.14 µM (inactive)

Q: What about the GI50 (NCI-H460) of the same molecule?
A: 3.59 µM (inactive)

Q: What about the GI50 (ACHN) of the same molecule?
A: 4.44 µM (inactive)

Q: What about the GI50 (OVCAR-5) of the same molecule?
A: 8.79 µM (inactive)

Q: What about the GI50 (DLD-1) of the same molecule?
A: > 30.5 µM (inactive)

Q: And the GI50 (UO-31)?
A: > 19.9 µM (inactive)

Q: What about the GI50 (SW-620) of the same molecule?
A: > 100 µM (inactive)

Q: What about the GI50 (HCT-15) of the same molecule?
A: > 30.9 µM

Q: And the GI50 (COLO 205)?
A: > 100 µM (inactive)

Q: And the GI50 (OVCAR-4)?
A: 4.82 µM (inactive)

Q: What about the GI50 (OVCAR-8) of the same molecule?
A: > 61.1 µM (inactive)

Q: What about the GI50 (HOP-62) of the same molecule?
A: > 100 µM (inactive)

Q: And the GI50 (NCI-H226)?
A: 14.9 µM (inactive)

Q: And the GI50 (K562)?
A: 5.26 µM (inactive)
